We go through four compounds from US5498609A, “Benzoazepinyl compounds as oxytocin and vasopressin antagonists” (Otsuka Pharmaceutical Company, Limited, priority 1992, dated 1996).

In assay [1] the target is V1 receptor (Rattus norvegicus, UniProt P30560). Description: biochemical. Conditions: rat liver plasma membrane, [3H]-Arg-vasopressin, 37° C., 10 minutes, pH 8.0; read-out: IC50 in V1 receptor binding assay. As to the method: Experiment 1: V1 receptor binding assay
Using rat liver plasma membrane preparations prepared according to Ichihara's method [cf: Akira Ichihara, J. Bio. Chem., 258, 9283 (1983)], the plasma membrane (50000 dpm, 2×10^-10 M) of [^3 H]-Arg-vasopressin and a test compound (60 μg, 10^-8 to 10^-4 M) are incubated at 37° C. for 10 minutes in 100 mM Tris-HCl buffer (pH: 8.0) (250 μl) containing 5 mM MgCl2, 1 mM EDTA and 0.1% BSA. After incubation, the mixture is filtered three times using the glass filter (GF/F) so as to separate the membrane preparation binding with vasopressin and then washed with the buffer (5 ml). This glass filter is taken out and mixed with liquid scintillation cocktail. The amount of [^3 H]-vasopressin binding with the membrane is measured by liquid scintillation counter and the rate of the inhibitory effect of the test compound is estimated according to the following equation. [formula] C1 : The amount of [^3 H]-vasopressin binding with the membrane in the presence of the test compound (known amount)
(§1) C0 : The amount of [^3 H]-vasopressin binding with the membrane in the absence of the test compound
(§2) B1 : The amount of [^3 H]-vasopressin binding with the membrane in the presence of the excess amount of vasopressin (10^-6 M)
(§3) The results are expressed as IC50 value, which is the concentration of the test compound required to achieve the inhibitory effect in the rate of 50%.

Assay [2] deals with T1, V2 receptor (Rattus norvegicus, UniProt Q00788).
T1 construct: Using rat kidney plasma membrane preparations; from tissue; host or cells: rat kidney plasma membrane
The experiment in a line: biochemical. The following applies: rat kidney plasma membrane, [3H]-Arg-vasopressin, 4° C., pH 8.0, read-out: IC50 in V2 receptor binding assay. As to the method: Experiment 2: V2 receptor binding assay
Using rat kidney plasma membrane preparations prepared according to O. Hechter's method [cf: J. Bio. Chem., 253, 3211 (1978)], the plasma membrane (100000 dpm, 4×10^-10 M) of [^3 H]-Arg-vasopressin and a test compound (0.6 mg, 10^-10 to 10^-5 M) are incubated at 4° C. for 3 hours in 100 mM Tris-HCl buffer (pH: 8.0) (250 μl) containing 5 mM MgCl2, 1 mM EDTA and 0.1% BSA. After incubation, the mixture is filtered using the glass filter (GF/F) so as to separate the membrane preparation binding with vasopressin and then washed twice with the buffer (each 5 ml). This glass filter is taken out and mixed with liquid scintillation cocktail. The amount of [^3 H]-vasopressin binding with the membrane is measured by liquid scintillation counter and the rate of the inhibitory effect of the test compound is estimated according to the following equation. [formula] C1 : The amount of [^3 H]-vasopressin binding with the membrane in the presence of the test compound (known amount)
as §1, §2, §3

The target of assay [3] is T2, Oxytocin receptor (Rattus norvegicus, UniProt P70536).
T2 construct: from tissue; host or cells: rat uterine muscle membrane (diethylstilbestrol-treated)
T2 sequence (P70536 1-388): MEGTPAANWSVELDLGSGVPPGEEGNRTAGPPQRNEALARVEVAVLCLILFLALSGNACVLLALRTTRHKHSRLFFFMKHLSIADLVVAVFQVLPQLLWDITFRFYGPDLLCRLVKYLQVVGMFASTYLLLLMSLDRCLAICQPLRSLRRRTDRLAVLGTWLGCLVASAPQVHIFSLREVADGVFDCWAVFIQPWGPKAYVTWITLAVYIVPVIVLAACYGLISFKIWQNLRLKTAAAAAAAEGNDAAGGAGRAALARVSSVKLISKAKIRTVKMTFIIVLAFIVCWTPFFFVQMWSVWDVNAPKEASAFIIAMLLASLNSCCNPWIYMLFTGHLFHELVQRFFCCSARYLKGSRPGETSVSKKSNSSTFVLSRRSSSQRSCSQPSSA
Description: Oxytocin receptor binding assay ([3H]-oxytocin, rat uterine muscle membrane). Conditions: 25° C., one hour, pH 8.0. The protocol: Experiment 3: Oxytocin receptor binding assay
According to the method of W. Y. Chan et al. [Endocrinology, 126, 2095-2101 (1990)], uterine muscle is taken out from a rat which has previously been injected subcutaneously with diethylstilbestrol the day before, and homogenized, which is used as a membrane preparation. The membrane preparation (0.2 mg), [^3 H]-oxytocin (100000 dpm, 10^-9 M), a test compound (10^-9 -10^-5 M) are incubated at 25° C. for one hour in 100 mM Tris-HCl buffer (pH 8.0, 250 μl) containing a 5 mM MgCl2, 1 mM MEDTA and 0.1% BSA. The mixture is filtered through the glass filter (GF/B) so as to separate the membrane preparation binding with [^3 H]-oxytocin, and then, washed twice with the buffer (5 ml). This glass filter is put into a vial and mixed with Aquasole (liquid scintillation cocktail). The amount of [^3 H]-oxytocin binding with the membrane is measured by liquid scintillation counter. The rate of the inhibitory effect of the test compound is estimated according to the following equation.
Inhibitory Rate (%)=100-[(C1 -B)/(C0 -B)]×100
C1 : The amount of [^3 H]-oxytocin binding with the membrane in the presence of a test compound (known amount)
C0 : The amount of [^3 H]-oxytocin binding with the membrane in the absence of a test compound
B: The amount of [^3 H]-oxytocin binding with the membrane in the presence of the excess amount of oxytocin (5×10^-6 M).
The results are expressed as IC50 value, which is the concentration of the test compound required to achieve the inhibitory rate in the rate of 50%.

Structures are written as SMILES.

T1 sequence (Q00788 whole entry): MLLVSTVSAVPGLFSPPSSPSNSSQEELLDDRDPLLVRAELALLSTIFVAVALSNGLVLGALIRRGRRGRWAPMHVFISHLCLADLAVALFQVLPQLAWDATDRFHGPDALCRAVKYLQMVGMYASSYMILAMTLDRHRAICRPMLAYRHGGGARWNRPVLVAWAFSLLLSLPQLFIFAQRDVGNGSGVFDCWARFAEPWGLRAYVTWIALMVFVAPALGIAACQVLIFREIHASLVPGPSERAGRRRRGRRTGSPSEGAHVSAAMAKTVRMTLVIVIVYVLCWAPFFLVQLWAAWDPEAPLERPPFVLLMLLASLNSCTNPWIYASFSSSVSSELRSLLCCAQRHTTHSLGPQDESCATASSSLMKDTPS
V1 receptor, sequence (P30560 whole entry): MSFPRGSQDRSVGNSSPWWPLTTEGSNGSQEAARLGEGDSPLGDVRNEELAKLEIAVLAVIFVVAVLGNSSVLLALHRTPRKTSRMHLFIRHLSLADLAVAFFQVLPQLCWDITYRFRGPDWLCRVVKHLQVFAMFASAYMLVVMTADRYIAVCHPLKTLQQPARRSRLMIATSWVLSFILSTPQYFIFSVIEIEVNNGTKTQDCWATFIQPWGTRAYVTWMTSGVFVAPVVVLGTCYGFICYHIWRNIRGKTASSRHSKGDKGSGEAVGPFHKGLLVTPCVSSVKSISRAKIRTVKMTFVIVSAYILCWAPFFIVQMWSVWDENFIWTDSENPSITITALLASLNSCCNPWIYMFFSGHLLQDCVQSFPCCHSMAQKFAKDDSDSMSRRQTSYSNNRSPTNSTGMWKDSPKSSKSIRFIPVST

As for `CC(=O)OCCC1CCCN(C(=O)c2ccc(NC(=O)c3ccccc3Cl)nc2)c2ccc(Cl)cc21` (stereo not drawn) [Compound of Ex. 122, 7-chloro-5-(2-acetyloxyethyl)-1-[6-(2-chlorobenzoylamino)nicotinoyl]-2,3,4,5-tetrahydro-1H-benzazepine], the IC50 was determined as 0.015 µM in assay [1], 0.003 µM in assay [2] and 0.64 µM in assay [3].

As for `Cc1ccccc1C(=O)Nc1ccc(C(=O)N2CCCC(CCO)c3cc(Cl)ccc32)cn1` (stereo not drawn) [Compound of Ex. 123], the IC50 in assay [1] stood at 0.02 µM; in assay [2], 0.0032 µM; in assay [3], 0.32 µM.

As to `O=C(Nc1ccc(C(=O)N2CCCC(CCN3CCCC3)c3cc(Cl)ccc32)cn1)c1ccccc1Cl` (stereo not drawn) [Compound of Ex. 126, 7-chloro-5-[2-(1-pyrrolidinyl)ethyl]-1-[6-(2-chlorobenzoylamino)nicotinoyl]-2,3,4,5-tetrahydro-1H-benzazepine], the IC50 in assay [1] amounted to 0.019 µM; in assay [2] it was 0.0053 µM; in assay [3], 1.32 µM.

For `O=C(Nc1ccc(C(=O)N2CCCC(CCN3CCOCC3)c3cc(Cl)ccc32)cn1)c1ccccc1Cl` (stereo not drawn) [Compound of Ex. 127], the IC50 in assay [1] came to 0.029 µM; in assay [2], 0.0059 µM; in assay [3], 0.68 µM.
